Target: T1, SOS1 binding to KRAS G12C (Homo sapiens, UniProt Q07889)
T1 construct: consisting of amino acid residues 564 to 1049 which are the catalytic domain; purchased Reaction Biology Corporation MSC-11-502 (SOS1-Strep); MSC-11-538 (KRAS G12C)
T1 sequence (Q07889 564-1049): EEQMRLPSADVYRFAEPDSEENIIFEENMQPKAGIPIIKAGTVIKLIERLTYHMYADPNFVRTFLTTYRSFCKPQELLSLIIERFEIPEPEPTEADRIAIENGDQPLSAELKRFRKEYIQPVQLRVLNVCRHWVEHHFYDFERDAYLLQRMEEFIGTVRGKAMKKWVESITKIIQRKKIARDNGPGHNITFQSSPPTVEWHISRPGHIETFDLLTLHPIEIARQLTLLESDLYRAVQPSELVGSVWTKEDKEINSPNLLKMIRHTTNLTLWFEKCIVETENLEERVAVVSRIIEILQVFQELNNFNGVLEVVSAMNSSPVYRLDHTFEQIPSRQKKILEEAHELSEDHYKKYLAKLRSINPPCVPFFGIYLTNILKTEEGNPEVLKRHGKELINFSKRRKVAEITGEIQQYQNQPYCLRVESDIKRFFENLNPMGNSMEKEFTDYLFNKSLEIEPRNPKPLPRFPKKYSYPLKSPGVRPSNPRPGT
Assay: SOS1 GTP substitution inhibition test (HTRF/TR-FRET, KRAS G12C-SOS1 binding inhibitory ability)
Format: biochemical
Conditions: HTRF, GST-KRAS G12C (2-169), SOS1-Strep (564-1049), 1.6, 8, 40, 200, 1,000 nM
Procedure: In order to determine whether the substitution function of SOS1 binding to KRAS G12C is inhibited by the above-described example compounds, a homogeneous time-resolved fluorescence (HTRF) test was performed using G12C(#MSC-11-538) and SOS1-Strep(#MSC-11-502) purchased from Reaction Biology Corporation (MA, USA). The activity of SOS1 enzyme was determined by measuring the amount of GTP bound to KRAS G12C proteins, using the principle of time-resolved fluorescence energy transfer (TR-FRET). Based on the principle that terbium bound to the GST-binding antibody of the GST-KRAS G12C protein acts as a donor of fluorescence resonance energy transfer (FRET), and the GTP bound to the KRAS G12C protein is labeled with the fluorescent agent DY-647P1 and acts as a receiver, when the more GTP is bound to the KRAS G12C protein by the substitution reaction of SOS1 according to this test, the higher HTRF or FRET signal is measured. To summarize, glutathione S-transferase (GST)-tagged KRAS G12C proteins (consisting of amino acid residues 2 to 169) required for the reaction, streptavidin-tagged SOS1 proteins (consisting of amino acid residues 564 to 1049 which are the catalytic domain), anti-GST antibody (#61[…]) purchased from CISBIO corporation, nucleic acid (#NU-820-647P1) purchased from Jena Bioscience GmbH were mixed in a buffer solution formed from 10 mM HEPES pH7.4, 150 mM NaCl, 5 mM MgCl2, and 1 mM dithiothreitol (DTT), and the mixture was added to a 384-well plate and reacted at room temperature. Next, FRET signals were measured with a Perkin Elmer Envision microplate reader. In this case, an excitation signal (excitation) was measured at 320 nm, and an emission signal (emission) was measured at 615/665 nm. The fluorescence measurement value when the SOS1 protein was not included was calculated as a background signal value, and the background signal value was subtracted from all of the measured HTRF values. The fluorescence measurement value when the synthesized compound was not included was measured as a control value, and this value was selected as a reference point of 100%. For each of the example compounds, fluorescence was measured at concentrations of 1.6, 8, 40, 200, and 1,000 nM (5 points, 5-fold), and the 50% activity inhibition value (IC50) of each of the compounds was calculated using GraphPad Prism. When the IC50 value was 50 nM or less, the inhibitory ability was denoted as +++. When the IC50 value was more than 50 nM and 100 nM or less, the inhibitory ability was denoted as ++. When the IC50 value was more than 100 nM, the inhibitory ability was denoted as +.

COc1cc2c(N[C@H](C)c3cc(NC(=O)C(F)(F)F)cc(C(F)(F)F)c3)nc(C)nc2cc1C(=O)N1CCOCC1 [Example 10]
IC50: > 100 nM

COc1cc2c(N[C@H](C)c3cccc(C(F)(F)F)c3)nc(C)nc2cc1C(=O)N1CCOCC1 [Example 15, (R)-(6-methoxy-2-methyl-4-((1-(3-(trifluoromethyl)phenyl)ethyl)amino)quinazolin-7-yl)(morpholino)methanone]
IC50: > 100 nM

COc1cc2c(N[C@H](C)c3cc(N)cc(C(F)(F)F)c3)nc(C)nc2cc1C(=O)N1CCOCC1 [Example 1, (R)-(4-((1-(3-amino-5-(trifluoromethyl)phenyl)ethyl)amino)-6-methoxy-2-methylquinazoline-7-yl)(morpholino)methanone]
IC50: ≤ 50 nM

Cc1nc(N[C@H](C)c2cc(N)cc(C(F)F)c2F)c2cc(NC(C)C)c(C(=O)N3CCOCC3)cc2n1 [Example 55, (R)-4-((1-(5-amino-3-(difluoromethyl)-2-fluorophenyl)ethyl)amino)-6-(isopropylamino)-2-methylquinazoline-7-(yl)(morpholino)methanone]
IC50: ≤ 50 nM

COc1cc2c(NC(C)c3cc(-c4ccccc4CN(C)C)cs3)nc(C)nc2cc1C(=O)N1CCOCC1 (stereo not drawn) [Example 12]
IC50: 50 to 100 nM

COc1cc2c(NC(C)c3cc(-c4ccccc4CN)cs3)nc(C)nc2cc1C(=O)N1CCOCC1 (stereo not drawn) [Example 13]
IC50: 50 to 100 nM

COc1cc2c(N[C@H](C)c3cccc4c3CCC4)nc(C)nc2cc1C(=O)N1CCOCC1 [Example 23, (R)-(4-((1-(2,3-dihydro-1H-inden-4-yl)ethyl)amino)-6-methoxy-2-methylquinazolin-7-yl)(morpholino)methanone]
IC50: 50 to 100 nM

COc1cc2c(N[C@H](C)c3cc(N)cc(C(F)(F)F)c3)nc(C)nc2cc1C(=O)N1CCC1 [Example 7, (R)-(4-((1-(3-amino-5-(trifluoromethyl)phenyl)ethyl)amino)-6-methoxy-2-methylquinazoline-7-yl)(azetidine-1-yl)methanone]
IC50: > 100 nM

CNc1cc2c(N[C@H](C)c3cc(N)cc(C(F)F)c3F)nc(C)nc2cc1C(=O)N1CCOCC1 [Example 43, (R)-(4-((1-(5-amino-3-(difluoromethyl)-2-fluorophenyl)ethyl)amino)-2-methyl-6-(methylamino)quinazoline-7-yl)(morpholino)methanone]
IC50: ≤ 50 nM

COc1cc2c(N[C@H](C)c3cc(N)cc(C(F)F)c3)nc(C)nc2cc1C(=O)N1CCOCC1 [Example 29, (R)-(4-((1-(3-amino-5-(difluoromethyl)phenyl)ethyl)amino)-6-methoxy-2-methylquinazolin-7-yl)(morpholino)methanone]
IC50: ≤ 50 nM

COc1cc2c(N[C@H](C)c3cc(N)cc(C(F)(F)F)c3)nc(C)nc2cc1C(=O)N1CCS(=O)(=O)CC1 [Example 18, (R)-(4-((1-(3-amino-5-(trifluoromethyl)phenyl)ethyl)amino)-6-methoxy-2-methylquinazolin-7-yl)(1,1-dioxothiomorpholino)methanone]
IC50: ≤ 50 nM

CNCc1ccccc1-c1csc(C(C)Nc2nc(C)nc3cc(C(=O)N4CCOCC4)c(OC)cc23)c1 (stereo not drawn) [Example 2, (6-methoxy-2-methyl-4-((1-(4-(2-((methylamino)methyl)phenyl)thiophen-2-yl)ethyl)amino)quinazoline-7-yl)(morpholino)methanone]
IC50: 50 to 100 nM

COc1cc2c(N[C@H](C)c3cc(N)cc(C(F)F)c3F)nc(C)nc2cc1C(=O)N1CCOCC1 [Example 26, (R)-(4-((1-(5-amino-3-(difluoromethyl)-2-fluorophenyl)ethyl)amino)-6-methoxy 2-methylquinazolin-7-yl)(morpholino)methanone]
IC50: ≤ 50 nM

CNc1cc2c(N[C@H](C)c3cc(N)cc(C(F)(F)F)c3)nc(C)nc2cc1C(=O)N1CCOCC1 [Example 40, (R)-(4-((1-(3-amino-5-(trifluoromethyl)phenyl)ethyl)amino)-2-methyl-6-(methylamino)quinazoline-7-yl)(morpholino)methanone]
IC50: ≤ 50 nM

COc1cc2c(N[C@H](C)c3cc(N)cc(C(F)(F)F)c3F)nc(C)nc2cc1C(=O)N1CCOCC1 [Example 25, (R)-(4-((1-(5-amino-2-fluoro-3-(trifluoromethyl)phenyl)ethyl)amino)-6-methoxy-2-methylquinazolin-7-yl)(morpholino)methanone]
IC50: ≤ 50 nM

COc1cc2c(N[C@H](C)c3cc(N)cc(C(F)(F)F)c3)nc(C)nc2cc1OCC1CCOCC1 [Example 38, (R)-N-(1-(3-amino-5-(trifluoromethyl)phenyl)ethyl)-6-methoxy-2-methyl-7-((tetrahydro-2H-pyran-4-yl)methoxy)quinazoline-4-amine]
IC50: > 100 nM

CNc1cc2c(N[C@H](C)c3cc(N)cc(-c4ccoc4)c3)nc(C)nc2cc1C(=O)N1CCOCC1 [Example 54, (R)-(4-((1-(3-amino-5-(furan-3-yl)phenyl)ethyl)amino)-2-methyl-6-(methylamino)quinazolin-7-yl)(morpholino)methanone]
IC50: 50 to 100 nM

COc1cc2c(N[C@H](C)c3cc(C)cc(N)c3)nc(C)nc2cc1C(=O)N1CCOCC1 [Example 21, (R)-(4-((1-(3-amino-5-methylphenyl)ethyl)amino)-6-methoxy-2-methylquinazolin-7-yl)(morpholino)methanone]
IC50: 50 to 100 nM

Cc1nc(N[C@H](C)c2cc(N)cc(C(F)(F)F)c2)c2cc(N3CCCC3)c(C(=O)N3CCOCC3)cc2n1 [Example 42, (R)-(4-((1-(3-amino-5-(trifluoromethyl)phenyl)ethyl)amino)-2-methyl-6-(pyrrolidin-1-yl)quinazoline-7-yl)(morpholino)methanone]
IC50: > 100 nM

COc1cc2c(N[C@H](C)c3cc(N)cc(-c4cncs4)c3)nc(C)nc2cc1C(=O)N1CCOCC1 [Example 30, (R)-(4-((1-(3-amino-5-(thiazole-5-yl)phenyl)ethyl)amino)-6-methoxy-2-methylquinazolin-7-yl)(morpholino)methanone]
IC50: 50 to 100 nM

COc1cc2c(N[C@H](C)c3cc(N)cc(F)c3)nc(C)nc2cc1C(=O)N1CCOCC1 [Example 17]
IC50: ≤ 50 nM
